Legend:
[1] = system: α1‐antitrypsin variants M, S, Baghdad, Z; assay: Association with α1‐antitrypsin variants M, S, Baghdad and Z (intrinsic tryptophan fluorescence); assay type: binding, human; conditions: 10 μM GSK716
Description: Polymerisation of α1‐antitrypsin involves transition through a transient intermediate state known as M*, that is readily populated by the Z variant (Dafforn et al, 1999; Knaupp et al, 2010). The M* conformational ensemble appears to be a distinct species between the native state conformation and that of the final polymer. One of the hallmarks of M* is its recognition by environment‐sensitive fluorescent reporter dyes. Thermal shift assays that make use of the dye SYPRO Orange report the stability of the protein native state against heat‐induced unfolding. […] Native state stability can also be probed by equilibrium unfolding using chemical denaturants, where a peak in bis‐ANS fluorescence corresponds with a maximally populated unfolding intermediate (James & Bottomley, 1998). […] The association of GSK716 induced a marked quenching and blue‐shift of the α1‐antitrypsin intrinsic tryptophan fluorescence spectrum (Fig 4D, inset). The rate of change in fluorescence during association of 10µM GSK716 was proportional to the propensity of α1‐antitrypsin mutants to form polymers in vivo: inert (M), mild (S), moderate (Baghdad) and severe (Z) α1‐antitrypsin (Fig 4D, top and bottom). […]

[2] = target: T1, Serotonin 5HT3 (Homo sapiens, UniProt P46098); assay: Off‐target panel: Serotonin 5HT3; assay type: cell-based
T1 sequence (P46098 24-478): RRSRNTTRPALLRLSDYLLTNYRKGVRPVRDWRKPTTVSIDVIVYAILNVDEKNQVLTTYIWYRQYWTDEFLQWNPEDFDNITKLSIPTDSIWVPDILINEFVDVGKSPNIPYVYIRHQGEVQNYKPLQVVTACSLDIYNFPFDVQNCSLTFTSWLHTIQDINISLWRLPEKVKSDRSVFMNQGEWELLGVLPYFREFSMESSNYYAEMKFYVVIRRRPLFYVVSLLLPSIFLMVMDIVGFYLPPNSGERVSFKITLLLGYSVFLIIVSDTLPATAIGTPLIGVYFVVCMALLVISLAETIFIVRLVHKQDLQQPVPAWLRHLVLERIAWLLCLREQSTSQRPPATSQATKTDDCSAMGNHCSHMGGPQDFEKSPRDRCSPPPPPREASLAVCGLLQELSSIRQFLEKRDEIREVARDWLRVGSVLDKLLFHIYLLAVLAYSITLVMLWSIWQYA
Protocol: GSK716 selectivity and PK properties were profiled in order to investigate the suitability of GSK716 for progression into in vivo studies and the potential for taking it forward as a clinical candidate for testing in humans. Since GSK716 results in loss of inhibitory activity of α1‐antitrypsin, the effect of the compound was assessed on other closely related serpins. […] Furthermore, there were no off‐target effects in a panel of assays considered predictive of known safety liabilities that precluded further development of GSK716 (Table EV1).

[3] = target: Z α1‐antitrypsin (Homo sapiens, UniProt P01009, E366K); assay: Competition binding assay with Alexa488‐labelled analogue of GSK716, Z α1‐antitrypsin; parameters: purified from the plasma of Z α1‐antitrypsin homozygotes; from tissue; host or cells: human plasma of Z α1-antitrypsin homozygotes; conditions: n = 18, mean ± SD, read-out: mean pKD (converted)
Sequence of Z α1‐antitrypsin (P01009 25-418 E366K): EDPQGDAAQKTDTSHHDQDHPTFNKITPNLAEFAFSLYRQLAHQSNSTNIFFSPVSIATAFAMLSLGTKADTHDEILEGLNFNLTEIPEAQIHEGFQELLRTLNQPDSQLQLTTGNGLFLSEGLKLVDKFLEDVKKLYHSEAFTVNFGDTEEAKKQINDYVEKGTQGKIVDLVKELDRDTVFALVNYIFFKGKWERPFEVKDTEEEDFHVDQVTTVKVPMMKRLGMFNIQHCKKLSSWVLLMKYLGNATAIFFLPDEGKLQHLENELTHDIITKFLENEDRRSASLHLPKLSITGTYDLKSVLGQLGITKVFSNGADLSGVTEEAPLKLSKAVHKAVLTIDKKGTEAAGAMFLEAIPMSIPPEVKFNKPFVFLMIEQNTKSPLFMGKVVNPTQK
Description: The shape of the curves and native mass spectrometry (not shown) are consistent with a single high‐affinity compound binding site. No binding of the fluorescent derivative to polymers of Z α1‐antitrypsin was observed, indicating conformational selectivity for the monomeric protein (Fig 1D). The rate of interaction of the compound with the target was monitored through changes in intrinsic tryptophan fluorescence (Dafforn et al, 1999); this property was used to determine the second‐order association rate constants for GSK716 binding to Z (4.1 × 10^4 M^−1 s^−1) and M α1‐antitrypsin (2.1 × 10^2 M^−1 s^−1; Fig 1E and F). […] Therefore, the selectivity of the compound for Z over M α1‐antitrypsin is dominated by the difference in the rate of association rather than dissociation.
Kinetic parameters of GSK716 binding to M, Z, S (Glu264Val) and Baghdad (Ala336Pro) (Haq et al, 2016) α1‐antitrypsin were measured by detecting intrinsic tryptophan fluorescence of the protein (excitation at 280 nm and detection of emission at 320 nm) on a stopped flow apparatus (Applied Photophysics) (Kim & Yu, 1996; Dafforn et al, 1999). […]

Structure (SMILES): CCC[C@@H](NC(=O)c1cccc2c1CC(=O)N2)[C@@H](O)c1cccc(F)c1C [GSK716]
- binding / rate of association across α1‐antitrypsin variants [1]: M < S < Baghdad < Z α1‐antitrypsin
- EC50 [2]: > 50.1 µM
- IC50 [2]: 31.6 µM
- Kd [3]: 0.00316 µM
